The compounds below were run against T1, human CRHR2-alpha (Homo sapiens, UniProt Q13324) (assay: cAMP functional assay for human CRHR2 (LANCE Ultra cAMP, TR-FRET)). Conditions: CHO-K1 cells expressing human CRHR2-alpha, agonist human urocortin2 at EC80, cAMP; read-out: IC50 against CRHR2.
T1 sequence (Q13324 1-411): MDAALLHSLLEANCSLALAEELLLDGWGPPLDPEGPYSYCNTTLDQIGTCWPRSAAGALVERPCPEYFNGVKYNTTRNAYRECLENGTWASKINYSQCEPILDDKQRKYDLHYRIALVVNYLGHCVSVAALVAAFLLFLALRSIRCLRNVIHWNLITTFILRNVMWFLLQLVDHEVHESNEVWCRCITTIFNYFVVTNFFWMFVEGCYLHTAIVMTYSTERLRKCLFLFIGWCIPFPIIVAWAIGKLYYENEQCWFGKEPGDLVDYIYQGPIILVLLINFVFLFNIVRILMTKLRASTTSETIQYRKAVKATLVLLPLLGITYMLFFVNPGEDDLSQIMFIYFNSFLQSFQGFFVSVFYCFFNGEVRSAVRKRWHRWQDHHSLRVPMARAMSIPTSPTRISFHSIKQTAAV
Assay type: cell-based
Outline: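 CHO-K1 stable lines; 4,000 cells/well; compound 30 min, 25° C; EC80 agonist (human urocortin2 → CRHR2, CRF → CRHR1) 30 min, 25° C; buffer HBSS/0.1% BSA/0.5 mM IBMX/5 mM Hepes pH 7.4; Eu-cAMP tracer + ULight antibody 60 min; TR-FRET read; IC50 from % inhibition curves.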

| SMILES | IC50 [µM] |
| --- | --- |
| Cc1ncc(Cl)cc1C(=O)N[C@H]1CC[C@H](Cn2c(=O)n(-c3ccc4c(C)noc4c3)c3ccccc32)CC1 [Example 171, 5-chloro-2-methyl-N-((1r,4r)-4-((3-(3-methylbenzo[d]isoxazol-6-yl)-2-oxo-2,3-dihydro-1H-benzo[d]imidazol-1-yl)methyl)cyclo-hexyl)nicotinamide] | < 0.3 |
| CNc1cc(C)c(-n2c(=O)n(C[C@H]3CC[C@H](NC(=O)c4cc(Cl)cnc4C(F)(F)F)CC3)c3ccccc32)cn1 [Example 545, 5-chloro-N-((1r,4r)-4-((3-(4-methyl-6-(methylamino)pyridin-3-yl)-2-oxo-2,3-dihydro-1H-benzo[d]imidazol-1-yl)methyl)cyclohexyl)-2-(trifluoromethyl)nicotinamide] | < 0.3 |
| COc1cc(-n2c(=O)n(C[C@H]3CC[C@H](NC(=O)c4cc(Cl)cnc4C(F)F)CC3)c3cccnc32)ccc1F [Example 399, 5-chloro-2-(difluoromethyl)-N-((1r,4r)-4-((3-(4-fluoro-3-methoxyphenyl)-2-oxo-2,3-dihydro-1H-imidazo[4,5-b]pyridin-1-yl)methyl)cyclo-hexyl)nicotinamide] | < 0.3 |
| Cc1ccc(-n2c(=O)n(C[C@H]3CC[C@H](NC(=O)c4cc(Cl)cnc4C)CC3)c3c(F)cccc32)cn1 [Example 124, 5-chloro-N-((1r,4r)-4-((7-fluoro-3-(6-methylpyridin-3-yl)-2-oxo-2,3-dihydro-1H-benzo[d]imidazol-1-yl)methyl)cyclo-hexyl)-2-methylnicotinamide] | < 0.3 |
| CNc1ccc(-n2c(=O)n(C[C@H]3CC[C@H](NC(=O)c4cc(Cl)cnc4C)CC3)c3ccc(F)cc32)cn1 [Example 625, 5-chloro-N-((1r,4r)-4-((5-fluoro-3-(6-(methylamino)pyridin-3-yl)-2-oxo-2,3-dihydro-1H-benzo[d]imidazol-1-yl)methyl)cyclohexyl)-2-methylnicotinamide] | < 0.3 |
| CCc1nc2ncc(-n3c(=O)n(C[C@H]4CC[C@H](NC(=O)c5cc(Cl)cnc5C)CC4)c4ccccc43)cc2o1 [Example 355, 5-chloro-N-((1r,4r)-4-((3-(2-ethyloxazolo[4,5-b]pyridin-6-yl)-2-oxo-2,3-dihydro-1H-benzo[d]imidazol-1-yl)methyl)cyclohexyl)-2-methylnicotinamide] | < 0.3 |
| Cc1ncc(Cl)cc1C(=O)N[C@H]1CC[C@H](Cn2c(=O)n(-c3ccc(C(=O)Nc4ccncc4)nc3)c3ccccc32)CC1 [Example 181, 5-(3-(((1r,4r)-4-(5-chloro-2-methylnicotinamido)cyclo-hexyl)methyl)-2-oxo-2,3-dihydro-1H-benzo[d]imidazol-1-yl)-N-(pyridin-4-yl) picolinamide] | < 0.3 |
| CNc1ccc(-n2c(=O)n(C[C@H]3CC[C@H](NC(=O)c4cc(Cl)cnc4C(F)(F)F)CC3)c3cc(F)ccc32)cn1 [Example 704, 5-chloro-N-((1r,4r)-4-((6-fluoro-3-(6-(methylamino)pyridin-3-yl)-2-oxo-2,3-dihydro-1H-benzo[d]imidazol-1-yl)methyl)cyclo-hexyl)-2-(trifluoromethyl) nicotinamide] | < 0.3 |
| CNC(=O)c1ccc(-n2c(=O)n(C[C@H]3CC[C@H](NC(=O)c4cc(Cl)cnc4C(F)F)CC3)c3cccc(C)c32)cn1 [Example 527, 5-(3-(((1r,4r)-4-(5-chloro-2-(difluoromethyl)nicotinamido)cyclohexyl)methyl)-7-methyl-2-oxo-2,3-dihydro-1H-benzo [d]imidazol-1-yl)-N-methylpicolinamide] | < 0.3 |
| CNC(=O)c1ccc(-n2c(=O)n(C[C@H]3CC[C@H](NC(=O)c4cc(C)ccc4C(F)(F)F)CC3)c3ccccc32)cn1 [Example 492, N-methyl-5-(3-(((1r,4r)-4-(5-methyl-2-(trifluoro-methyl)benzamido)cyclo-hexyl)methyl)-2-oxo-2,3-dihydro-1H-benzo[d]imidazol-1-yl)picolinamide] | < 0.3 |
